Publication PMC9612005 (Pharmaceutics, 2022)

Tests used:
retinal ganglion cells = assay: Light-evoked retinal ganglion cell spike responses of mouse retinal explants on MEA; assay type: cell-based; details: for Spike count (10 ms bin): inh 50 µM, act 0.1 µM, mean ±std; for drop of RGC spiking activity: ≥−2.0 log
Protocol: (§1) Further animal experiments were performed using adult postnatal-day (P) 25–30 C57BL/6J mice (n = 12). Animals were housed under standard 12 h white cyclic lighting, had free access to food, water, and playgrounds, and were used irrespective of gender. Animal protocols compliant with §4 of the German law on animal protection were reviewed and approved by the Tübingen University committee on animal protection, and registered on 30 March 2022 under the No. AK05/22M. Moreover, experiments were performed in accordance with the ARVO statement for the use of animals in ophthalmic and visual research. All efforts were made to minimize the number of mice used and their suffering.
(§2) The mice were kept overnight in a ventilated light-tight box for dark-adaption. Subsequent procedures were performed under dim red light. The eyes of the mice were enucleated; then, the retina was isolated in extracellular solution containing (in mM): 125 NaCl, 26 NaHCO3, 2.5 KCl, 2 CaCl2, 1 MgCl2, 1.25 NaH2PO4, and 20 glucose, and was maintained at pH 7.4 using carboxygen perfusion (95/5% O2/CO2). All chemicals were obtained from Merck KGaA (Darmstadt, Germany). For MEA recording, the retinas were placed in the MEA-recording chamber (GC-side down). During the recordings, the tissue was perfused with carboxygenated medium at 32 °C. The chamber perfusion rate was adjusted to 2 mL/min.
(§3) Electrophysiological recordings were performed to assess the light dependent retinal responses (photoreceptors µERG and RGCs spikes) by means of a multi-electrode array system (MEA, USB-MEA60-Up-BC-System-E from Multi Channel Systems, Reutlingen, Germany) equipped with MEA 200/30iR-ITO-pr. The recordings were performed at a 25,000 Hz sampling-rate collecting unfiltered raw data. The trigger-synchronized operation of the light stimulation (LEDD1B T-Cube, Thorlabs) and MEA recording were controlled by the recording protocol set within the MCRack software (v 4.6.2, Multi Channel Systems, Reutlingen, Germany) and the digital I/O box (MCS). The light stimulation (white light LED, 2350 mW, MCWHD3, Thorlabs, Newton, NJ, USA) was applied from beneath the transparent glass MEA, guided by optic fiber and optics. A spectrometer USB4000-UV-VIS-ES (Ocean Optics, Orlando, FL, USA) was employed to calibrate the intensity of the applied light-stimulation protocol. To discriminate the rod and cone photoreceptor responses, a light-stimulation protocol for ex vivo MEA recordings was established following the standard in-vivo ERG protocol. For scotopic recordings (rod responses), the animals were dark-adapted (12 h), while for the photopic recordings (cone responses), the retinal explants were light-adapted on the MEA (5 min at intensity of 4.20 × 10^13 photons/cm^2/s), subsequent to scotopic stimulation. The parameters of the light stimuli were set as: light flash 250 ms long (3 repetition per light intensity, 20 s interval). Scotopic: 10 stimuli in 0.5 log steps from −4.5 to 0.0 (1.33 × 10^9–4.20 × 10^13 photons/cm^2/s). Photopic (background light: 4.20 × 10^13 photons/cm^2/s): four stimuli in 0.5 log steps from +0.5 to +2.0 (1.33 × 10^14–4.20 × 10^15 photons/cm^2/s).
(§4) MEA-recorded raw data files were filtered employing a Butterworth 2nd order filter (MC-Rack, Multi-channel systems) to extract the µERG (field potentials: bandpass 0.01–100 Hz) and spikes (high pass 200 Hz). The filtered data were converted to *.hdf files by MC DataManager (v1.6.1.0, Multi Channel Systems, Reutlingen, Germany) for further data processing in MATLAB [39]. Shown traces data are the average of 30 MEA recording electrodes, per condition. n = 5 retinae were recorded per condition. Statistical significance was estimated by one-way ANOVA followed by the Dunnett´s test for multiple comparisons. Experimental data are given as mean ± SEM.

rod photoreceptors = assay: µERG a-wave of mouse retinal explants on MEA, scotopic (dark-adapted) stimulation; assay type: cell-based; details: for photoreceptor (rod) responses under low scotopic light: <−2.0 log; for photoreceptor (rod) responses under low scotopic light / reduction of a-wave amplitudes / decrease in the a-wave slope vs control: inhibitor 50 µM, activator 0.1 µM; for reduction of a-wave amplitudes: higher light intensities (≥−2.0 log); for a-wave amplitude / a-wave slope: inh 50 µM, act 0.1 µM, mean ±std
Protocol: as §1, §2, §3
as §4, with “Experimental data are given as mean ± SEM.” left out

[1] = photopic, light intensity +0.5 log
[2] = photopic, light intensity +1.0 log
[3] = photopic, light intensity +1.5 log
[4] = photopic, light intensity +2.0 log
[5] = scotopic, light intensity 0.0 log
[6] = scotopic, light intensity -0.5 log
[7] = scotopic, light intensity -1.0 log
[8] = scotopic, light intensity -1.5 log
[9] = scotopic, light intensity -2.0 log
[10] = scotopic, light intensity -2.5 log
[11] = scotopic, light intensity -3.0 log
[12] = scotopic, light intensity -3.5 log
[13] = scotopic, light intensity -4.0 log
[14] = scotopic, light intensity -4.5 log
[15] = scotopic, inhibitor 50 µM, activator 0.1 µM

| SMILES | Spike count (10 ms bin) (retinal ganglion cells; [1]) | Spike count (10 ms bin) (retinal ganglion cells; [2]) | Spike count (10 ms bin) (retinal ganglion cells; [3]) | Spike count (10 ms bin) (retinal ganglion cells; [4]) | Spike count (10 ms bin) (retinal ganglion cells; [5]) | Spike count (10 ms bin) (retinal ganglion cells; [6]) | Spike count (10 ms bin) (retinal ganglion cells; [7]) | Spike count (10 ms bin) (retinal ganglion cells; [8]) | Spike count (10 ms bin) (retinal ganglion cells; [9]) | Spike count (10 ms bin) (retinal ganglion cells; [10]) | Spike count (10 ms bin) (retinal ganglion cells; [11]) | Spike count (10 ms bin) (retinal ganglion cells; [12]) | Spike count (10 ms bin) (retinal ganglion cells; [13]) | Spike count (10 ms bin) (retinal ganglion cells; [14]) | drop of RGC spiking activity (retinal ganglion cells; [15]) | photoreceptor (rod) responses under low scotopic light (rod photoreceptors) | reduction of a-wave amplitudes (rod photoreceptors; scotopic) | a-wave amplitude (rod photoreceptors; [5]) [µV] | a-wave slope (rod photoreceptors; [5]) [µV / 20 ms] | a-wave amplitude (rod photoreceptors; [6]) [µV] | further results |
| --- | --- | --- | --- | --- | --- | --- | --- | --- | --- | --- | --- | --- | --- | --- | --- | --- | --- | --- | --- | --- | --- |
| Nc1nc2c(nc(Sc3ccc(Cl)cc3)n2[C@@H]2O[C@@H]3COP(=O)(O)O[C@H]3[C@H]2O)c(=O)[nH]1 [8-pCPT-cGMP] | 4.35± 0.79 | 4.43± 0.47 | 4.74± 1.09 | 4.56± 0.92 | 3.92± 0.24 | 3.60± 0.35 | 3.03± 0.52 | 3.04± 0.49 | 2.41± 0.38 | 1.28± 0.51 | 0.73± 0.49 | 0.86± 0.30 | 0.89± 0.07 | 0.67± 0.22 | 35–47% | rod-responses were essentially absent | 60–80% | -27.81± 6.62 | -0.64± 0.21 | -24.30± 7.17 | a-wave slope (rod photoreceptors; [6]): -0.39± 0.16 µV / 20 ms; a-wave amplitude (rod photoreceptors; [7]): -18.28± 4.38 µV; a-wave slope (rod photoreceptors; [7]): -0.31± 0.09 µV / 20 ms; a-wave amplitude (rod photoreceptors; [8]): -14.14± 3.10 µV; a-wave slope (rod photoreceptors; [8]): -0.19± 0.17 µV / 20 ms; a-wave amplitude (rod photoreceptors; [9]): -11.59± 2.75 µV; a-wave slope (rod photoreceptors; [9]): -0.12± 0.22 µV / 20 ms; a-wave amplitude (rod photoreceptors; [10]): -3.02± 0.74 µV; a-wave slope (rod photoreceptors; [10]): -0.07± 0.01 µV / 20 ms; a-wave amplitude (rod photoreceptors; [11]): 0.04± 0.05 µV; a-wave slope (rod photoreceptors; [11]): 0.09± 0.15 µV / 20 ms; a-wave amplitude (rod photoreceptors; [12]): 0.00± 0.00 µV; a-wave slope (rod photoreceptors; [12]): -0.04± 0.08 µV / 20 ms; a-wave amplitude (rod photoreceptors; [13]): 0.00± 0.00 µV; a-wave slope (rod photoreceptors; [13]): 0.02± 0.01 µV / 20 ms; a-wave amplitude (rod photoreceptors; [14]): 0.00± 0.00 µV; a-wave slope (rod photoreceptors; [14]): 0.11± 0.10 µV / 20 ms; decrease in the a-wave slope vs control (rod photoreceptors; scotopic): ~ 85% |
| O=c1c2nc(Br)n([C@@H]3O[C@@H]4CO[P@@](=O)(S)O[C@H]4[C@H]3O)c2nc2[nH]c(-c3ccccc3)cn12 [Rp-8-Br-PET-cGMPS] | 4.85± 0.92 | 4.40± 0.94 | 4.51± 1.07 | 4.92± 1.12 | 3.80± 0.26 | 3.48± 0.49 | 2.91± 0.16 | 2.80± 0.63 | 2.55± 0.62 | 0.83± 0.28 | 0.72± 0.10 | 1.14± 0.50 | 0.98± 0.44 | 1.03± 0.27 | 30–40% | essentially abolished photoreceptor responses | ~ 96% | -7.32± 1.37 | -0.15± 0.11 | -4.49± 1.49 | RGC spiking activity under photopic stimulation (retinal ganglion cells; ≥+0.5 log, inhibitor 50 µM, activator 0.1 µM): remained nearly at control levels; light intensity at which rod a-wave response was detectable (rod photoreceptors; scotopic): −2.0 log units; a-wave slope (rod photoreceptors; [6]): -0.07± 0.04 µV / 20 ms; a-wave amplitude (rod photoreceptors; [7]): -3.62± 1.17 µV; a-wave slope (rod photoreceptors; [7]): -0.07± 0.04 µV / 20 ms; a-wave amplitude (rod photoreceptors; [8]): -2.22± 1.40 µV; a-wave slope (rod photoreceptors; [8]): -0.03± 0.03 µV / 20 ms; a-wave amplitude (rod photoreceptors; [9]): -1.85± 0.71 µV; a-wave slope (rod photoreceptors; [9]): -0.04± 0.03 µV / 20 ms; a-wave amplitude (rod photoreceptors; [10]): 0.00± 0.00 µV; a-wave slope (rod photoreceptors; [10]): -0.05± 0.03 µV / 20 ms; a-wave amplitude (rod photoreceptors; [11]): 0.00± 0.00 µV; a-wave slope (rod photoreceptors; [11]): -0.04± 0.02 µV / 20 ms; a-wave amplitude (rod photoreceptors; [12]): 0.00± 0.00 µV; a-wave slope (rod photoreceptors; [12]): 0.02± 0.02 µV / 20 ms; a-wave amplitude (rod photoreceptors; [13]): 0.00± 0.00 µV; a-wave slope (rod photoreceptors; [13]): -0.02± 0.00 µV / 20 ms; a-wave amplitude (rod photoreceptors; [14]): 0.00± 0.00 µV; a-wave slope (rod photoreceptors; [14]): -0.02± 0.03 µV / 20 ms; decrease in the a-wave slope vs control (rod photoreceptors; scotopic): up to 90% |
